In patent US20040019060A1, “Sigma receptor ligands and their medical uses” (priority 2000, published 2004):
Counter-ions that a name gives are not always drawn. Like-named read-outs stand apart in the source and are kept apart here.

Assays:
endothelial cells = test: Endothelial cell proliferation assay (cell phosphatase activity); type: cell-based, human; conditions: Homo sapiens, Endothelial cell
Method: (§1) HUVECS (human umbilical vein endothelial cells) obtained from TCS Biologicals were grown in TCS Biologicals Large Vessel Endothelial Cell Basal Medium (ZHM-2951) with supplement (ZHS-8945). This contains heparin, hydrocortisone, human EGF, human bFGF (concentrations not disclosed by the Company) with added 2% FCS, pH 7.4.
(§2) HMEC-1 (immortalised human microvascular endothelial cells) obtained from Dr Colin Porter, Chester Beatty Laboratories were grown in TCS Biologicals Microvascular Endothelial Cell Basal Medium (ZHM-2946) with supplement (ZHS-8947). This contains heparin, hydrocortisone, human EGF, human bFGF, dibutyryl cyclic AMP (concentrations not disclosed by the Company) with added 5% FCS, pH 7.4.
as §2, with “HDMECS (human dermal” for “HMEC-1 (immortalised human”, “TCS Biologicals” for “Dr Colin Porter, Chester Beatty Laboratories”
(§3) The cells were seeded at 2×10^4 ml in 96 well microtitre plates on day 0, and sigma ligands were added in fresh medium on day 1. […] PCS at the concentrations indicated was present throughout the assay. Each concentration of drug was assayed in triplicate, and the vehicle concentration was kept constant.
Viable cells present at the end of the assay were estimated by determining phosphatase activity as follows: 100Xl of paranitrophenylphosphate (Sigma) at 3 mg/ml in phosphate buffer pH 5.5 containing 0.1% Triton X100 was added to wells and incubated for 2hr at 37° C. The reaction was stopped with 1N NaOH. Released paranitrophenol, indicative of attached cell number, was measured by reading the absorbance at 405 nm in a Titertek multiscan. […] The 100% value is the mean absorbance of control wells treated with vehicle alone; the 0% value is that of wells containing medium only.

[1] = tested on: human vascular endothelial cells (HUVEC); test: Proliferation assay in HUVEC (phosphatase activity); type: cell-based; conditions: 168 h, read-out: IC50 (dose required to inhibit proliferation to 50% of control), FIG. 2b, assay on day 7
Method: as §1, §3
Viable cells present at the end of the assay were estimated by determining phosphatase activity as follows: 100Xl of paranitrophenylphosphate (Sigma) at 3 mg/ml in phosphate buffer pH 5.5 containing 0.1% Triton X100 was added to wells and incubated for 2hr at 37° C. The reaction was stopped with 1N NaOH. Released paranitrophenol, indicative of attached cell number, was measured by reading the absorbance at 405 nm in a Titertek multiscan. “Background” counts (which were very low) were subtracted, and the survival in drug treated wells compared with that of control wells. The 100% value is the mean absorbance of control wells treated with vehicle alone; the 0% value is that of wells containing medium only.

[2] = tested on: Human mammary carcinoma (MDA MB 468) cells; test: MTS cell viability/proliferation assay, mammary carcinoma cells; type: cell-based
Method: Human mammary carcinoma (MDA MB 468) cells were obtained from TCC, Manassas, Va., USA; catalogue number HTB-132; cells were grown in accordance with the manufacturer's instructions.
(§4) Cell density was checked microscopically at time zero.

sigma-1 sites = sigma-1 sites (Homo sapiens, UniProt Q99720); conditions: Abou-Gharbia et al 1993; cited from earlier work
[3] = tested on: Human mammary epithelial cells; test: MTS cell viability/proliferation assay, mammary epithelial cells; type: cell-based; conditions: 10 micromolar, up to 48 hours, FIG. 9
Description: (§5) (Tissue in all cases was from healthy donors). […] Primary cell types included:
Human mammary epithelial cells (catalogue number CC-2551; stain positive for cytokeratins 14, 18 and 19).
as §4

sponge angiogenesis [4] = test: Rat sponge angiogenesis model (125I albumin vascular volume); type: in vivo, CBH/cbi rats
Method: (§6) In order to study neoangiogenesis in the absence of tumours, sterile polyether sponges were implanted into animals. This technique, developed in Cambridge, has been widely used to study angiogenesis. We have employed a triple radiotracer technique to study different aspects of the angiogenic process.
CBH/cbi rats were implanted s.c. with sterile 13 mm diameter sponges as above. They were treated i.p. with Rimcazole (30 mg/kg/day) for 14 days from day 0. Five minutes before termination, they were injected with ^125I labelled rat albumin (a macromolecule which, in the short term remains intravascular). The amount of radioiodine in the sponges is an index of vascular volume.

[5] = tested on: Human adult dermal microvascular endothelial cells; test: MTS cell viability/proliferation assay, microvascular endothelial cells; conditions: Homo sapiens, Endothelial cell
[6] = tested on: Human endothelial cells co-cultured with human "feeder" fibroblasts; test: In vitro angiogenesis assay (pseudocapillary formation, anti-CD31 staining); type: cell-based
Method: Human endothelial cells co-cultured with human “feeder” fibroblasts on a fibrin matrix in 24 well plates were incubated with ligands at different concentrations. The ligands were added on days 0, 4, 7 and 9 and the experiment terminated on day 11. On each plate, 2 wells served as untreated controls, and 2 received suramin at […] as a standard angiogenesis inhibitor. Each concentration of ligand was assayed in triplicate. On day 11, the wells were washed, and the endothelial cells fixed and stained with anti-CD31 (PECAM-1) antibody and visualised with alkaline phosphatase conjugated second antibody. The cultures were scanned for image analysis and quantitation using a DataCell image analysis system and ImagePro software. Angiogenesis was expressed as the area and/or perimeter of “pseudocapillaries” formed in the gel by the endothelial cells.

[7] = tested on: human adult dermal fibroblasts; test: MTS cell viability/proliferation assay, dermal fibroblasts; type: cell-based
Description: as §5, §4

sponge angiogenesis [8] = test: Mouse sponge angiogenesis model (triple radiotracer); type: in vivo, Balb/C mice; conditions: 30 mg/kg i.p. daily, all time points, FIG. 7a
Description: as §6
Balb/C mice were implanted bilaterally s.c. with sterile 7 mm diameter polyether sponges on days -5, -12 and -16 days prior to termination (5-6 mice per group). The mice were given Lugol's solution (KI) for 3 days prior to injection of radionuclides to prevent uptake of iodine in the thyroid. 24 hours before termination, the mice were injected i.v with […] [131-I] 5′-iodo-2′-deoxyuridine (IudR). One hour prior to termination the mice were injected with 2 XCi 2-deoxy-D-(1-[H3]glucose (DG) and 2 minutes prior to termination 2XCi [Tc-99m]-exametazine (HMPAO).
The IudR uptake reflects cell proliferation (primarily endothelial cells and also a small proportion of the inflammatory cells which provide the angiogenic growth factors); the DG measures cellular glucose metabolism, and the HMPAO gives a measure of blood flow. All can be taken as separate indices of the degree of vascularisation of the sponge implants. Mice were treated i.p. daily with Rimcazole (30 mg/kg) from the day of sponge implantation, or vehicle alone.

sigma-1 sites, sequence (Q99720 whole entry): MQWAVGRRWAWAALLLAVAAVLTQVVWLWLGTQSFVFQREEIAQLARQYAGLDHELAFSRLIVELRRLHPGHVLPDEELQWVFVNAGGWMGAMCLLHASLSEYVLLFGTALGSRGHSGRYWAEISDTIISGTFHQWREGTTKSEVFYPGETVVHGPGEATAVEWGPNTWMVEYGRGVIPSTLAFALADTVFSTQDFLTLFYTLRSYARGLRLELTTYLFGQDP

C[C@@H]1CN(CCCn2c3ccccc3c3ccccc32)C[C@H](C)N1 [Rimcazole, cis-9-[3,5-dimethyl-1-piperazinyl) propyl]carbazole dihydrochloride]
activity at 4 µM (endothelial cells; 4 μM Rimcazole, read-out: Endothelial cell proliferation, % of control cells): < 50%
IC50 (endothelial cells; concentration of drug required to inhibit survival and/or proliferation by 50%, read-out: Antagonists: IC50): 5 µM
IC50 [1]: < 5 µM
Effect of sublethal concentration (MTS) ([2]; 5 micromolar, FIG. 10 bottom panel): cytostasis
Cell killing (MTS viability) ([2]; 10 micromolar, low passage cells, FIG. 9): no surviving cells remained after 24 hours
selectivity for sigma-1 compared to sigma-2 sites (sigma-1 sites): approximately 5 fold
Survival and proliferation (MTS) [3]: continued to proliferate vigorously
Vascular volume of normal organs (liver and kidney) (sponge angiogenesis [4]; 30 mg/kg/day for 14 days): unaffected
Neoangiogenesis in sponges (vascular volume, radiolabelled albumin) (sponge angiogenesis [4]; 30 mg/kg/day for 14 days after implantation, FIG. 7b): reduced
cytotoxicity at 10 µM ([5]; read-out: Reduction in viability): ~80%
cytotoxicity at 10 µM ([5]; read-out: Reduction in viable cell numbers compared to baseline values): 60 to 80%
Inhibition of in vitro angiogenesis ([6]; 4 μM, FIG. 5c): complete inhibition of angiogenesis
Inhibition of pseudocapillary formation (in vitro angiogenesis) ([6]; FIG. 4, 5a, 5b angiogenesis area): very effective in inhibiting
Survival and proliferation (MTS) ([7]; 10 micromolar, up to 48 hours, FIG. 9): continued to proliferate vigorously
Tolerance of fibroblasts over a range of concentrations (MTS) ([7]; 100 micromolar to 1 nanomolar, FIG. 10): remarkably resistant
Cell proliferation (IUdR), cellular metabolism (DG) and blood flow (HMPAO) in sponge implants (sponge angiogenesis [8]): reduction
